In article PMC3760392 (Bioorganic & medicinal chemistry, 2013):

Tests used:
D3 than D2 receptor = conditions: cited from earlier work
rD3 receptor = rD3 receptor (Rattus norvegicus, UniProt P19020)
rD2L receptor = rD2L receptor (Rattus norvegicus, UniProt P61169); conditions: read-out: Ki (nM), rD2L [3H]spiperone; HEK293 cells, mean ± SEM
rD2L receptor, sequence (P61169 whole entry): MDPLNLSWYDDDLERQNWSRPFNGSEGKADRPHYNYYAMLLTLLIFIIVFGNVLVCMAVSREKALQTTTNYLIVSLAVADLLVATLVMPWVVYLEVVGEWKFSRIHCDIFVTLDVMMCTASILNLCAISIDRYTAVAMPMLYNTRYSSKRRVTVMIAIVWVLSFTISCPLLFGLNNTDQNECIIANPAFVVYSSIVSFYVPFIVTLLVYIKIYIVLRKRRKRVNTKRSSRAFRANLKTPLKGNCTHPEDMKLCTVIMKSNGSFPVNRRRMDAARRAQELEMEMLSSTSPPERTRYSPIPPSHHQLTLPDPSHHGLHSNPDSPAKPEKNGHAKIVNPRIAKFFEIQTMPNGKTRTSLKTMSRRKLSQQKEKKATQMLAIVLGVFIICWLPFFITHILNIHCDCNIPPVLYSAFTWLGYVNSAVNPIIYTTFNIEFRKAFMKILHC

rD3 receptor, sequence (P19020 whole entry): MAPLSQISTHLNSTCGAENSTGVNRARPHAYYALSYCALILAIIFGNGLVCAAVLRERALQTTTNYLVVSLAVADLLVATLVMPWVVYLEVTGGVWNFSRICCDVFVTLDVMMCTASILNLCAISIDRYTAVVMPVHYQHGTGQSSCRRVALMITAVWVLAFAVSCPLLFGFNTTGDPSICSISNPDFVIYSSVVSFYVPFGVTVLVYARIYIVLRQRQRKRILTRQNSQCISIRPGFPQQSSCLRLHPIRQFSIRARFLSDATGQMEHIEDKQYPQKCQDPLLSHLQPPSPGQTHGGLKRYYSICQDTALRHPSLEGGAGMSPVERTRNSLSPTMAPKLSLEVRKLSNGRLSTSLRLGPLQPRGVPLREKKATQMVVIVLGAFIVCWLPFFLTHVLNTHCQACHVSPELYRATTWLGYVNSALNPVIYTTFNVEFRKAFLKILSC

CCCN[C@H]1CCc2nc(N)sc2C1 [pramipexole]
fold higher affinity for the D3 than D2 receptor (D3 than D2 receptor): 4- to 10 fold

N^6-(2-(4-Phenylpiperazin-1-yl)ethyl)-N^6-propyl-5,6,7,8-tetrahydro-1H-naphtho[2,3-d]imidazole-2,6-diamine [Compound 10e]
D2L/D3 (rD3 receptor; ratio of Ki rD2L / Ki rD3): 8.89
Ki (rD3 receptor; read-out: Ki (nM), rD3 [3H]spiperone, HEK293 cells, mean ± SEM): 1790 nM
Ki (rD2L receptor): 15900 nM
